Measured values from ChEMBL document CHEMBL5338807, “Design and Synthesis of Bouchardatine Derivatives as a Novel AMP-Activated Protein Kinase Activator for the Treatment of Colorectal Cancer” (J Med Chem, 2023).
The source made the active and inactive calls. The calls are words filed in the database; no cut-off is given here.

Assays:
RKO [1] = assay: Effect on energy metabolism in human RKO cells assessed as decrease in ATP production incubated for 24 hrs by luminescence based analysis; type: functional, cell-based
RKO [2] = assay: Effect on metabolism in human RKO cells assessed as inhibition of oxidative phosphorylation at 50 mM measured after 24 hrs by seahorse analysis; type: functional, cell-based
RKO [3] = assay: Antiproliferative activity against human RKO cells assessed as reduction in cell viability incubated for 24 hrs; type: functional, cell-based
RKO [4] = assay: Inhibition of cell migration of human RKO cells at 1 uM incubated for 48 hrs by wound healing assay; type: functional, cell-based
RKO [5] = assay: Antiproliferative activity against human RKO cells assessed as inhibition of colony formation at 1 uM measured after 7 days by crystal violet staining based assay; type: functional, cell-based; conditions: time 7.0 day
RKO [6] = assay: Effect on metabolism in human RKO cells assessed as activation of oxidative phosphorylation at 1 uM measured after 24 hrs by seahorse analysis; type: functional, cell-based
RKO [7] = assay: Effect on metabolism in human RKO cells assessed as enhancement of oxidative phosphorylation at 2 mM measured after 24 hrs by seahorse analysis; type: functional, cell-based
RKO [8] = assay: Effect on energy metabolism in human RKO cells assessed as decrease in AMP level incubated for 24 hrs by luminescence based analysis; type: functional, cell-based
RKO [9] = assay: Antitumor activity against human RKO cells xenografted in BALB/nude mouse assessed as activation of p-AMPKalpha at Thr172 residue in tumor tissue at 10 mg/kg, ip administered once daily for 25 days by immunohistochemical based microscopic analysis; type: functional, organism-based; conditions: time 25.0 day
RKO [10] = assay: Antiproliferative activity against human RKO cells assessed as reduction in cell viability incubated for 24 hrs by propidium iodide staining based high-content screening method; type: functional
RKO [11] = assay: Induction of mitochondrial damage in human RKO cells assessed as decrease in ROS level at 0.1 uM incubated for 24 hrs by DCFH-DA staining based flow cytometric analysis; type: functional, cell-based
RKO [12] = assay: Effect on energy metabolism in human RKO cells assessed as upregulation of ATP production incubated for 24 hrs by luminescence based analysis; type: functional, cell-based
RKO [13] = assay: Upregulation of p-AMPK expression in human RKO cells at 0.1 uM incubated for 24 hrs by Western blotting analysis; type: functional, cell-based
RKO [14] = assay: Antiproliferative activity against human RKO cells assessed as cell killing at 0.5 uM measured after 16 hrs by RTCA assay; type: functional, cell-based
SW480 = assay: Antiproliferative activity against human SW480 cells assessed as reduction in cell viability incubated for 24 hrs; type: functional, cell-based; conditions: SW480, 24 h
RKO [15] = assay: Antitumor activity against human RKO cells xenografted in BALB/nude mouse assessed as tumor growth inhibition at 10 mg/kg, ip administered once daily for 25 days; type: functional; conditions: 600 h, time 25 day
RKO [16] = assay: Effect on metabolism in human RKO cells assessed as enhancement of oxygen consumption rate at 0.1 uM measured after 24 hrs by seahorse analysis; type: functional, cell-based
[17] = Cytotoxicity against human NCM460 cells assessed as reduction in cell viability incubated for 24 hrs; type: toxicity, cell-based
RKO [18] = assay: Antiproliferative activity against human RKO cells assessed as reduction in cell viability incubated for 24 hrs in presence of FCCP by propidium iodide staining based high-content screening method; type: functional
RKO [19] = assay: Antiproliferative activity against human RKO cells assessed as reduction in cell viability incubated for 24 hrs in presence of FCCP by propidium iodide staining based high-content screening method relative to control; type: functional
[20] = Cytotoxicity against human L02 cells assessed as reduction in cell viability incubated for 24 hrs; type: toxicity, cell-based
RKO [21] = assay: Effect on metabolism in human RKO cells assessed as oxygen consumption rate by measuring enhancement of maximal respiration at 0.1 uM measured after 24 hrs by seahorse analysis; type: functional, cell-based
HCT-116 = assay: Antiproliferative activity against human HCT-116 cells assessed as reduction in cell viability incubated for 24 hrs; type: functional, cell-based; conditions: HCT-116, 24 h
RKO [22] = assay: Effect on metabolism in human RKO cells assessed as oxygen consumption rate by measuring enhancement of proton leak at 0.1 uM measured after 24 hrs by seahorse analysis; type: functional, cell-based
RKO [23] = assay: Inhibition of cell migration of human RKO cells at 0.1 uM incubated for 48 hrs by wound healing assay; type: functional, cell-based
RKO [24] = assay: Antiproliferative activity against human RKO cells assessed as reduction in cell viability incubated for 24 hrs in presence of oligomycin by propidium iodide staining based high-content screening method; type: functional
RKO [25] = assay: Antiproliferative activity against human RKO cells assessed as reduction in cell density at 0.1 uM measured after 16 hrs by RTCA assay; type: functional, cell-based
RKO [26] = assay: Antiproliferative activity against human RKO cells assessed as reduction in cell viability incubated for 24 hrs in presence of oligomycin by propidium iodide staining based high-content screening method relative to control; type: functional
DLD-1 = assay: Antiproliferative activity against human DLD-1 cells assessed as reduction in cell viability incubated for 24 hrs; type: functional, cell-based; conditions: DLD-1, 24 h
RKO [27] = assay: Antiproliferative activity against human RKO cells assessed as inhibition of colony formation at 0.1 uM measured after 7 days by crystal violet staining based assay; type: functional, cell-based; conditions: time 7.0 day
NCM460 = assay: Effect on metabolism in human NCM460 cells assessed as change in extracellular acidification rate at 0.1 uM measured after 24 hrs by seahorse analysis; type: functional, cell-based
RKO [28] = assay: Upregulation of mitochondrial complex V in human RKO cells at 0.1 uM incubated for 24 hrs by Western blotting analysis; type: functional, cell-based
RKO [29] = assay: Upregulation of mitochondrial complex III in human RKO cells at 0.1 uM incubated for 24 hrs by Western blotting analysis; type: functional, cell-based
[30] = Toxicity in BALB/nude mouse xenografted with human RKO cells assessed as body weight loss at 10 mg/kg, ip administered once daily for 25 days; type: organism-based; conditions: in vivo, 600 h, time 25 day
[31] = Cytotoxicity against human LX2 cells assessed as reduction in cell viability incubated for 24 hrs; type: toxicity, cell-based; conditions: LX-2 cells
RKO [32] = assay: Effect on metabolism in human RKO cells assessed as oxygen consumption rate by measuring enhancement of basal respiration at 0.1 uM measured after 24 hrs by seahorse analysis; type: functional, cell-based
RKO [33] = assay: Antiproliferative activity against human RKO cells assessed as reduction in cell viability incubated for 24 hrs by propidium iodide staining based high-content screening method relative to control; type: functional
RKO [34] = assay: Effect on energy metabolism in human RKO cells assessed as increase in AMP level incubated for 24 hrs by luminescence based analysis; type: functional, cell-based
RKO [35] = assay: Effect on energy metabolism in human RKO cells assessed as increase in mitochondrial membrane potential at 0.1 uM incubated for 24 hrs by rhodamine 123 staining based flow cytometric analysis; type: functional, cell-based
RKO [36] = assay: Effect on metabolism in human RKO cells assessed as oxygen consumption rate by measuring enhancement of ATP production at 0.1 uM measured after 24 hrs by seahorse analysis; type: functional, cell-based

## CN(C)C(=N)NC(=N)N
RKO [1]
  Activity: Active
RKO [2]
  inhibition: Active

## CN(C)CCCNc1nc(-c2[nH]c3ccccc3c2C=O)nc2ccccc12
RKO [3]
  IC50: 1.7 µM
RKO [4]
  inhibition: Active
RKO [5]
  inhibition: Active
RKO [6]
  Activity: Active

## NC(=O)c1ncn([C@@H]2O[C@H](CO)[C@@H](O)[C@H]2O)c1N
RKO [1]
  Activity: Active
RKO [7]
  Activity: Active
RKO [8]
  Activity: Active

## O=Cc1c(-c2nc(NCCc3ccccc3)c3ccccc3n2)[nH]c2ccccc12
RKO [3]
  IC50: 0.8 µM
RKO [4]
  inhibition: Active
RKO [5]
  inhibition: Active
RKO [6]
  Activity: inactive

## Cc1ccc2[nH]c(-c3nc(NCCN4CCCC4)c4ccccc4n3)c(C=O)c2c1
RKO [3]
  IC50: 0.7 µM
RKO [4]
  inhibition: Active
RKO [5]
  inhibition: Active
RKO [6]
  Activity: Active

## O=Cc1c(-c2nc3ccccc3c(=O)[nH]2)[nH]c2ccccc12
RKO [3]
  IC50: > 10 µM
RKO [4]
  inhibition: Active
RKO [5]
  inhibition: Active
RKO [6]
  Activity: Active

## O=Cc1c(-c2nc(NCCc3ccc(O)cc3)c3ccccc3n2)[nH]c2ccccc12
RKO [9]
  Activity: Active
RKO [3]
  IC50: 0.1 µM
RKO [10]
  IC50: 0.07 µM
RKO [11]
  Activity: Active
RKO [12]
  Activity: Active
RKO [13]
  Activity: Active
RKO [14]
  Activity: Active
SW480
  IC50: < 1 µM
RKO [15]
  inhibition in vivo at 10 mg/kg: 58.2%
RKO [16]
  Activity: Active
[17]
  IC50 at 24 h: > 15 µM
RKO [18]
  IC50: > 1 µM
RKO [19]
  inhibition (INH): 25%
[20]
  IC50 at 24 h: > 15 µM
RKO [21]
  Activity: Active
HCT-116
  IC50: < 1 µM
RKO [22]
  Activity: Active
RKO [23]
  inhibition: Active
RKO [24]
  IC50: > 1 µM
RKO [25]
  Activity: Active
RKO [26]
  inhibition (INH): 52%
DLD-1
  IC50: < 1 µM
RKO [27]
  inhibition: Active
NCM460
  Activity: inactive
RKO [28]
  Activity: Active
RKO [29]
  Activity: Active
[30]
  Activity: Non-Toxic
[31]
  IC50 at 24 h: > 15 µM
RKO [32]
  Activity: Active
RKO [33]
  inhibition (INH): 92%
RKO [34]
  Activity: Active
RKO [35]
  Activity: Active
RKO [36]
  Activity: Active

## CCN1CCC[C@H]1CNc1nc(-c2[nH]c3ccccc3c2C=O)nc2ccccc12
RKO [3]
  IC50: 0.9 µM
RKO [4]
  inhibition: Active
RKO [5]
  inhibition: Active
RKO [6]
  Activity: Active

## O=Cc1c(-c2nc(NC3CC3)c3ccccc3n2)[nH]c2ccccc12
RKO [3]
  IC50: 3.9 µM

## COCCNc1nc(-c2[nH]c3ccccc3c2C=O)nc2ccccc12
RKO [3]
  IC50: 4.1 µM

## CN(C)CC(C)(C)CNc1nc(-c2[nH]c3ccccc3c2C=O)nc2ccccc12
RKO [3]
  IC50: 5.3 µM

## CN(C)CCNc1nc(-c2[nH]c3ccc(F)cc3c2C=O)nc2ccccc12
RKO [3]
  IC50: 1.7 µM

## O=Cc1c(-c2nc(NCCc3ccc(C(F)(F)F)cc3)c3ccccc3n2)[nH]c2ccccc12
RKO [3]
  IC50: 4.2 µM

## CN(C)CCCNc1nc(-c2[nH]c3ccccc3c2C(=O)O)nc2ccccc12
RKO [3]
  IC50: 5.3 µM

## CN(C)CCCNc1nc(-c2[nH]c3ccc(F)cc3c2C=O)nc2ccccc12
RKO [3]
  IC50: 1.9 µM

## CCC(=O)Nc1nc(-c2[nH]c3ccccc3c2C=O)nc2ccccc12
RKO [3]
  IC50: > 10 µM

## O=Cc1c(-c2nc(NC(=O)c3cccnc3)c3ccccc3n2)[nH]c2ccccc12
RKO [3]
  IC50: > 10 µM
